The values that follow come from patent US11266599B2, “Inhalable dry powder cytidine analogue composition and method of use as a treatment for cancer” (Lovelace Biomedical Research Institute, priority 2018, dated 2022).

For one series, the system named is PD-L1. The following applies: LC cell lines, in vitro; cited from earlier work.
The test system of series [1] is xenografts of human LC-derived cell lines. The conditions noted are these: Rowett nude rat, systemic intraperitoneal injection, reference 29; cited from earlier work.
For series [2] the following is noted: room temperature; cited from earlier work.
The conditions of series [3]: rats, intravenous 200 mg/kg for a month; cited from earlier work.
Series [4] is described as follows: Pharmacokinetics study of systemic, inhaled aqueous and inhaled dry powder 5AZA, with and without THU. Type of series: in vivo, Sprague Dawley rat. The following applies: THU 80 mg/kg oral. As to the method: The 5AZA aerosol was delivered into the lungs of rats using a nose only inhalation delivery system in which a 5AZA dry powder formulation and a 5AZA aqueous formulation aerosol is generated with a rotating brush generator or Pari nebulizer, respectively. […] At each time-point, systemic blood was collected into K3EDTA tubes for separation into plasma and lung, liver, and brain tissue was snap frozen in liquid nitrogen. Plasma and lung tissue samples were assayed via a liquid chromatography mass spectrometry assay and the average concentration versus time profile modeled with non-compartmental analysis.

Turning to `Nc1ncn([C@@H]2O[C@H](CO)[C@@H](O)[C@H]2O)c(=O)n1` [5AZA, 4-amino-1-β-D-ribofuranosyl-1,3,5-triazin-2(1H)-one], the “expression of PD-L1” value with PD-L1 is reported as “increased”. Moreover, the “reduction of tumor burden / suppression of tumor growth” value in series [1] was 31%.

Consider `Nc1ncn([C@H]2C[C@H](O)[C@@H](CO)O2)c(=O)n1` [DAC, 5-aza-2′-deoxyazacytidine], for which the “stability in aqueous solution” value in series [2] is reported as “relatively unstable”.

Take `C[S+](C)[O-]` [DMSO]: the toxicity entry in series [3] was “no toxicity”.

Turning to `O=C1NC(O)CCN1[C@@H]1O[C@H](CO)[C@@H](O)[C@H]1O` (stereo partly drawn) [THU, tetrahydrouridine], in series [4], the “effect of addition of THU on PK profile of the dry powder formulation in brain” value was “greatly improved” and the “effect of addition of THU on lung PK of 5AZA” value is “did not influence”.
